Measured values: ChEMBL document CHEMBL5352385, “Marine natural products and their synthetic analogs as promising antibiofilm agents for antibiotics discovery and development” (Eur J Med Chem, 2022)
Where a SMILES comes first, the peptide text is derived from it. The star is where a group is joined. Palmitoyl = CCCCCCCCCCCCCCCC(=O)*; X2 = CCCCCCCCC(O)CC(=O)O*

Tests used:
Pseudomonas aeruginosa [1] = test: Antibiofilm activity against Pseudomonas aeruginosa PAO1 at 500 ug/ml incubated for 24 hrs by crystal violet staining based analysis relative to control; format: functional; details: dose 500 µg/ml
Staphylococcus aureus [2] = test: Antibiofilm activity against Staphylococcus aureus ATCC 6538 at 6.25 ug/ml relative to control; format: functional; details: dose 6.25 µg/ml
Staphylococcus aureus [3] = test: Antibiofilm activity against Staphylococcus aureus ATCC 29213 at 0.5 to 4 ug/ml relative to control; format: functional; details: dose 0.5-4 µg/ml; at 0.5 to 4 µg/mL
Escherichia coli [4] = test: Antibiofilm activity against Escherichia coli at 50.9 ug/ml relative to control; format: functional; details: dose 50.9 µg/ml
Bacillus subtilis = test: Antibiofilm activity against Bacillus subtilis MTCC 619 at 2 ug/ml incubated for 18 hrs by crystal violet staining based analysis relative to control; format: functional; details: dose 2 µg/ml
Staphylococcus aureus [5] = test: Antibiofilm activity against Staphylococcus aureus MTCC 96 at 2 ug/ml incubated for 18 hrs by crystal violet staining based analysis relative to control; format: functional; details: dose 2 µg/ml
Vibrio cholerae = test: Antibiofilm activity against Vibrio cholerae MTCC 3906 at 2 ug/ml incubated for 18 hrs by crystal violet staining based analysis relative to control; format: functional; details: dose 2 µg/ml
Staphylococcus aureus [6] = test: Antibiofilm activity against Staphylococcus aureus ATCC 6538 at 12.5 ug/ml relative to control; format: functional; details: dose 12.5 µg/ml
Bacillus pumilus = test: Antibiofilm activity against Bacillus pumilus TiO1 assessed as inhibition of biofilm formation at 12.5 ug/ml by microdilution plate method relative to control; format: functional; parameters: scale not given: the % may be the effect or the level left; details: dose 12.5 µg/ml
Pseudomonas aeruginosa [7] = test: Antibiofilm activity against Pseudomonas aeruginosa PA01 assessed as inhibition of biofilm formation at 25 ug/ml by microdilution plate method relative to control; format: functional; parameters: scale not given: the % may be the effect or the level left; details: dose 25 µg/ml
Candida albicans [8] = test: Antibiofilm activity against Candida albicans BH assessed as inhibition of biofilm formation at 25 ug/ml by microdilution plate method relative to control; format: functional; parameters: scale not given: the % may be the effect or the level left; details: dose 25 µg/ml
Pseudomonas aeruginosa [9] = test: Antibiofilm activity against Pseudomonas aeruginosa PA01 assessed as inhibition of biofilm formation at 100 ug/ml by microdilution plate method relative to control; format: functional; parameters: scale not given: the % may be the effect or the level left; details: dose 100 µg/ml
[10] = Inhibition of quorum-sensing system in Staphylococcus epidermidis assessed as inhibition of AI-2 at 60 ug/ml by bioluminescence assay relative to control; details: dose 60.0 µg/ml
Serratia marcescens = test: Antibiofilm activity against Serratia marcescens FJ584421 assessed as inhibition of biofilm formation at 300 ug/ml relative to control; format: functional; parameters: scale not given: the % may be the effect or the level left; details: dose 300 µg/ml
Escherichia coli [11] = test: Antibiofilm activity against Escherichia coli at 31.3 ug/ml relative to control; format: functional; details: dose 31.3 µg/ml
Staphylococcus aureus [12] = test: Antibiofilm activity against methicillin-sensitive Staphylococcus aureus ATCC 35556 incubated for 24 hrs; format: functional
Staphylococcus aureus [13] = test: Antibiofilm activity against methicillin-resistant Staphylococcus aureus ATCC 43866 incubated for 24 hrs; format: functional
[14] = tested on: Staphylococcus epidermidis; test: Antibiofilm activity against […] incubated for 24 hrs; format: functional
Pseudomonas aeruginosa [15] = test: Antibiofilm activity against Pseudomonas aeruginosa PA01 assessed as inhibition of biofilm formation at 800 ug/ml relative to control; format: functional; parameters: scale not given: the % may be the effect or the level left; details: dose 800 µg/ml
Pseudomonas aeruginosa [16] = test: Antibiofilm activity against Pseudomonas aeruginosa FSPA02 at 75 ug/ml by crystal violet staining based confocal microscopy analysis relative to control; format: functional; details: dose 75 µg/ml
Candida albicans [17] = test: Antibiofilm activity against Candida albicans assessed as inhibition of biofilm formation at 400 ug/ml by microbroth dilution assay relative to control; format: functional; parameters: scale not given: the % may be the effect or the level left; details: dose 400 µg/ml
Candida albicans [18] = test: Antibiofilm activity against Candida albicans assessed as reduction in biofilm formation at 50 ug/ml measured after 48 hrs by crystal violet staining based analysis relative to control; format: functional; parameters: scale not given: the % may be the effect or the level left; details: dose 50 µg/ml
Pseudomonas aeruginosa [19] = test: Antibiofilm activity against Pseudomonas aeruginosa assessed as inhibition of biofilm formation at 90 ug/ml incubated for 24 hrs by crystal violet staining based analysis relative to control; format: functional; parameters: scale not given: the % may be the effect or the level left; details: dose 90 µg/ml
Staphylococcus aureus [20] = test: Antibiofilm activity against methicillin-resistant Staphylococcus aureus CH 10850 at 33.2 ug/ml relative to control; format: functional; details: dose 33.2 µg/ml

Question: With O=C1N[C@@H](Cc2ccc(O)cc2)C(=O)N2CCC[C@@H]12 as the compound, how does the Activity (Pseudomonas aeruginosa [1]) read?
Answer: 48%

Question: With COC(=O)[C@@]12Oc3ccc(-c4ccc5c(c4O)C(=O)C4=C(O)C[C@H](C)[C@H](O)[C@]4(C(=O)OC)O5)c(O)c3C(=O)C1=C(O)C[C@H](C)[C@@H]2O [SECALONIC ACID B] as the compound, how does the Activity (Staphylococcus aureus [2]) read?
Answer: >90%

Question: Which Activity (Staphylococcus aureus [3]) does the source give for COC(=O)CCN(CCCCCCCCCCCOCCc1ccc[n+](Cc2ccccc2)c1)C(=O)OC(C)(C)C.[Cl-] here?
Answer: 25%

Question: With NC1=N[C@]23CCCN2C(=O)c2[nH]c(Br)c(Br)c2[C@@H]3N1 as the compound, how does the Activity (Escherichia coli [4]) read?
Answer: 50%

Question: For CCCCCCCCCCCCCCCC(=O)NC(CO)C(=O)NC(CC(=O)O)C(=O)NC(C(=O)NC(CO)C(=O)NC(CO)C(=O)O)C(C)C (centres undefined) (Palmitoyl-SDVSS-OH; configuration not given here), which Activity (Bacillus subtilis) is on record?
Answer: 99%

Question: What about the Activity (Staphylococcus aureus [5]) of the same compound?
Answer: 99%

Question: And the Activity (Vibrio cholerae)?
Answer: 99%

Question: For CC1=C2C(=CO[C@H](C)[C@H]2C)C(O)=C(C(=O)O)C1=O [CITRININ], which Activity (Staphylococcus aureus [6]) is on record?
Answer: >50%

Question: With CCCCCCCCCCCCCCCC(=O)OC[C@H]1O[C@H](O)[C@H](O)[C@@H](O)[C@@H]1O as the compound, how does the Activity (Bacillus pumilus) read?
Answer: >50%

Question: And the Activity (Pseudomonas aeruginosa [7])?
Answer: >50%

Question: And the Activity (Candida albicans [8])?
Answer: >50%

Question: And the Activity (Pseudomonas aeruginosa [9])?
Answer: >70%

Question: With CCCCCCCCCCCCCCC=O as the compound, how does the inhibition [10] read?
Answer: > 50%

Question: For OCCc1ccc(O)cc1 [TYROSOL], which Activity (Serratia marcescens) is on record?
Answer: 85.7%

Question: For NC1=N[C@]23CCCN2C(=O)c2cc(Br)c(Br)n2[C@@H]3N1 [DIBROMOPHAKELLIN], which Activity (Escherichia coli [11]) is on record?
Answer: 50%

Question: Which MBIC (Staphylococcus aureus [12]) does the source give for Cn1c(-c2nnc(-c3ccc(Cl)cc3Cl)o2)cc(Br)c1Br here?
Answer: 0.39 µg/mL

Question: And the MBIC (Staphylococcus aureus [13])?
Answer: 0.78 µg/mL

Question: And the MBIC [14]?
Answer: 3.125 µg/mL

Question: With CC(=O)NCCc1ccc(O)cc1 as the compound, how does the Activity (Pseudomonas aeruginosa [15]) read?
Answer: 28%

Question: With CCCCCCCCC(O)CC(=O)OC(=O)C(Cc1ccccc1)NC(=O)C(CC(C)C)NC(=O)C(CC(C)C)NC(=O)C(NC(=O)C(CC(=O)O)NC(=O)C(CC(C)C)NC(=O)C(N)CC(C)C)C(C)C (centres undefined) (H-LLDVLLF-X2; configuration not given here) as the compound, how does the Activity (Pseudomonas aeruginosa [16]) read?
Answer: 90%

Question: Which Activity (Candida albicans [17]) does the source give for O=Cc1ccc(CO)o1 [AES-103] here?
Answer: 86%

Question: For CCCCCCC(C)/C(O)=C1\C(=O)[C@@H](C(C)O)N(C)C1=O (some centres undefined), which Activity (Candida albicans [18]) is on record?
Answer: 80%

Question: With CC(C)CC(=O)NCCc1ccccc1 as the compound, how does the Activity (Pseudomonas aeruginosa [19]) read?
Answer: >40%

Question: Which Activity (Staphylococcus aureus [20]) does the source give for CC(=O)O[C@@H]1O[C@H]2OC(=O)C3=C(C)[C@@](C)([C@@]4(C)CCCC(C)(C)C4)CC[C@@H]1[C@H]32 here?
Answer: 50%
